Measurements as given in US12440496B2, “Natriuretic peptide receptor a agonists useful for the treatment of cardiometabolic diseases, kidney disease and diabetes” (Merck Sharp & Dohme LLC, priority 2019, dated 2025).

Target: T1, hNPRA (Homo sapiens, UniProt P16066)
T1 construct: expressed in transfected cells
T1 sequence (P16066 33-1061): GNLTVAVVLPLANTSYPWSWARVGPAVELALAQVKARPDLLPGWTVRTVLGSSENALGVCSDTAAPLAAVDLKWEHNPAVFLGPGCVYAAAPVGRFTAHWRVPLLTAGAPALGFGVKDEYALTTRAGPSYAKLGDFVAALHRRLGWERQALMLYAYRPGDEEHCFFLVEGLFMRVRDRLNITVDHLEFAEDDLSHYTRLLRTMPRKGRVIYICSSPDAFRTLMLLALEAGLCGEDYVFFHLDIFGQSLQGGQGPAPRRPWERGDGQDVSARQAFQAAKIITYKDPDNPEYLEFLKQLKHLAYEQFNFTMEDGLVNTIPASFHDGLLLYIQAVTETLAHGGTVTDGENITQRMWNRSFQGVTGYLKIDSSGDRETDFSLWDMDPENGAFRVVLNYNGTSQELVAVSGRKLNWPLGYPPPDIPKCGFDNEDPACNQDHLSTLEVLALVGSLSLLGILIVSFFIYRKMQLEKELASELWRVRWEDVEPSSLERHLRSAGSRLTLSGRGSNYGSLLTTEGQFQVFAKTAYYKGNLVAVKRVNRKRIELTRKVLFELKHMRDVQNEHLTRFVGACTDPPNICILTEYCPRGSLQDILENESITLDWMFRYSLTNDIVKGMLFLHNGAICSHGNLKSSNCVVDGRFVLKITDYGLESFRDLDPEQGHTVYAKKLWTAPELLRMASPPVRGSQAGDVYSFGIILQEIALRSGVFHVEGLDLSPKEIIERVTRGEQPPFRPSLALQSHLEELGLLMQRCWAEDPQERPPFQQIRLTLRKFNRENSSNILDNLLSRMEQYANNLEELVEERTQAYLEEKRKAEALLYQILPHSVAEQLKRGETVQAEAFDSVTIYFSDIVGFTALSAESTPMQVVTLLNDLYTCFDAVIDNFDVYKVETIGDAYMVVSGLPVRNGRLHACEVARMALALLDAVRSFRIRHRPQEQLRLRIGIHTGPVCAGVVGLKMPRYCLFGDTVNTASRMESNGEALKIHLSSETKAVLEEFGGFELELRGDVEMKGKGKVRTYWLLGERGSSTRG
Assay: NPRA Functional Cell Assay (cGMP HTRF, NPRA HEK JumpIn stable cells)
Type: cell-based
Conditions: cGMP production, 1 hour at 37° C., 10-point dose response
In short: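 cGMP HTRF read-out after 1 hour compound treatment at 37° C. of human NPRA-expressing HEK JumpIn cells, 1500 cells/well, in buffer with phosphodiesterase inhibitors IBMX and RO20 (100 uM each). Signal converted to [cGMP] by calibration curve; EC50s fitted by 4-parameter logistic; 50 nM h-ANP as positive response.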

SMILES | EC50 [nM]
Cc1cc(-c2ccc([C@@H](CCN3CCCCC3)NC(=O)c3cc4cc5c(nc4s3)CC[C@H](C(C)(C)C)C5)cc2)cnc1O [Example 239, (6S)-6-tert-butyl-N-{(1R)-1-[4-(6-hydroxy-5-methylpyridin-3-yl)phenyl]-3-piperidin-1-ylpropyl}-5,6,7,8-tetrahydrothieno[2,3-b]quinoline-2-carboxamide] | 1400
CC(C)(C)[C@H]1CCc2nc3sc(C(=O)N[C@H](CCN4CCC(O)CC4)c4cccc(C(=O)N5CCO[C@H]6CNC[C@H]65)c4)nc3cc2C1 (racemic) [Example 161, rac-(7S)-7-tert-butyl-N-[rac-(1R)-3-(4-hydroxy-1-piperidyl)-1-[3-[rac-(4aR,7aS)-3,4a,5,6,7,7a-hexahydro-2H-pyrrolo[3,4-b][1,4]oxazine-4-carbonyl]phenyl]propyl]-5,6,7,8-tetrahydrothiazolo[5,4-b]quinoline-2-carboxamide] | 1950
Cc1nc(O)ccc1-c1ccc([C@@H](CCN2CCCCC2)NC(=O)c2cc3cc4c(nc3s2)CC[C@H](C(C)(C)C)C4)cc1 [Example 240, (6S)-6-tert-butyl-N-{(1R)-1-[4-(6-hydroxy-2-methylpyridin-3-yl)phenyl]-3-piperidin-1-ylpropyl}-5,6,7,8-tetrahydrothieno[2,3-b]quinoline-2-carboxamide] | 1660
CC(C)(C)[C@H]1CCc2nc3sc(C(=O)N[C@H](CCN4CCC(CO)CC4)c4ccccc4)cc3cc2C1 [Example 255, (6S)-6-tert-butyl-N-{(1R)-3-[4-(hydroxymethyl)piperidin-1-yl]-1-phenylpropyl}-5,6,7,8-tetrahydrothieno[2,3-b]quinoline-2-carboxamide] | 2930

The remaining molecules from weak to strong by EC50, led by results:

EC50 [nM] | SMILES
1910 | CC(C)(C)[C@H]1CCc2nc3sc(C(=O)N[C@H](CCN4CCC(O)CC4)c4ccc(N5CCC(O)C5)nc4)nc3cc2C1 (mixture of isomers) [Example 190, rac-(7S)-7-tert-butyl-N-[rac-(1R)-3-(4-hydroxy-1-piperidyl)-1-[6-(3-hydroxypyrrolidin-1-yl)-3-pyridyl]propyl]-5,6,7,8-tetrahydrothiazolo[5,4-b]quinoline-2-carboxamide]
1020 | CC(C)(C)[C@H]1CCc2nc3sc(C(=O)N[C@H](CCN4CCC(O)CC4)c4ccc(-c5ccncc5N)cc4)nc3cc2C1 (racemic) [Example 175, rac-(7S)-7-tert-butyl-N-[rac-(1R)-1-[4-(3-amino-4-pyridyl)phenyl]-3-(4-hydroxy-1-piperidyl)propyl]-5,6,7,8-tetrahydrothiazolo[5,4-b]quinoline-2-carboxamide]
901 | CN1CC(CNC(=O)c2cccc([C@@H](CCN3CCC(O)CC3)NC(=O)c3nc4cc5c(nc4s3)CC[C@H](C(C)(C)C)C5)c2)CC1=O (mixture of isomers) [Example 159, rac-(7S)-7-tert-butyl-N-[rac-(1R)-3-(4-hydroxy-1-piperidyl)-1-[3-[(1-methyl-5-oxo-pyrrolidin-3-yl)methylcarbamoyl]phenyl]propyl]-5,6,7,8-tetrahydrothiazolo[5,4-b]quinoline-2-carboxamide]
665 | CC(C)(C)[C@H]1CCc2nc3sc(C(=O)N[C@H](CCN4CCC(C(=O)O)CC4)c4ccc(-c5ccc(=O)[nH]c5)cc4)cc3cc2C1 (racemic) [Example 44, 1-[rac-(3R)-3-[4-(6-oxo-1H-pyridin-3-yl)phenyl]-3-[rac-(6S)-6-tert-butyl-5,6,7,8-tetrahydrothieno[2,3-b]quinoline-2-carbonyl]amino]propyl] piperidin-1-ium-4-carboxylic acid;formate]
258 | CN1CCC(CNC(=O)c2cccc([C@@H](CCN3CCC(O)CC3)NC(=O)c3nc4cc5c(nc4s3)CC[C@H](C(C)(C)C)C5)c2)C1 (mixture of isomers) [Example 142, rac-(7S)-7-tert-butyl-N-[rac-(1R)-3-(4-hydroxy-1-piperidyl)-1-[3-[(1-methylpyrrolidin-3-yl)methylcarbamoyl]phenyl]propyl]-5,6,7,8-tetrahydrothiazolo[5,4-b]quinoline-2-carboxamide]
